Assay results published in patent US8497296B2, “N,N′-hydrazino-bis-isatin derivatives with selective activity against multidrug-resistant cancer cells” (King Saud University, priority 2011, dated 2013).

How the values were obtained:
KB-3-1 cells = assay: MTT cytotoxicity assay, parental KB-3-1 cell line; format: cell-based; conditions: Homo sapiens, parental KB-3-1 cells (HeLa derivative), 72 h incubation, at least three experiments, read-out: IC50 KB3-1
Method: (§1) The cytotoxicity of the prepared compounds was evaluated at Laboratory of Cell Biology, National Cancer Institute, National Institutes of Health, Bethesda, Md. 20892, Group in Biomolecular, USA, using the following protocol:
KB-3-1 cells (a HeLa deriviative) and its MDR derivative (KB-V1) were grown as previously described. Cell survival was measured by the MTT (3-(4,5-dimethylthiazol-2-yl)-2,5-diphenyltetrazolium bromide) assay as previously described. Briefly, cells were seeded in 100 μL of growth medium at a density of 5000 cells/well in 96-well plates and allowed to establish for 24 h, at which time serially diluted drugs were added in an additional 100 μL of growth medium. Cells were then incubated for 72 h at 37° C. in humidified 5% CO2, at which time the growth medium was drawn and replaced with MTT in IMDM growth medium and incubated for 4 h. The MTT solution was then drawn from the wells, and 100 μL of acidified ethanol solution was added to each well and after 15 min absorption at 560 nm was measured. […] The effect of treatment on cell viability was determined using the luminescent Cell Titer Glo Assay (Promega).

KB-V1 cells = assay: MTT cytotoxicity assay, P-glycoprotein-expressing MDR cell line KB-V1; format: cell-based; conditions: for IC50: Homo sapiens, P-glycoprotein-expressing MDR KB-V1 cells, 72 h incubation, MTT, at least three experiments, read-out: IC50 KBV1; for RR (MDR1 selectivity): ratio of IC50 against KB-3-1 cells divided by IC50 against KB-V1 cells, >1 = MDR1-selective
Method: as §1
KB-3-1 cells (a HeLa deriviative) and its MDR derivative (KB-V1) were grown as previously described. Cell survival was measured by the MTT (3-(4,5-dimethylthiazol-2-yl)-2,5-diphenyltetrazolium bromide) assay as previously described. Briefly, cells were seeded in 100 μL of growth medium at a density of 5000 cells/well in 96-well plates and allowed to establish for 24 h, at which time serially diluted drugs were added in an additional 100 μL of growth medium. Cells were then incubated for 72 h at 37° C. in humidified 5% CO2, at which time the growth medium was drawn and replaced with MTT in IMDM growth medium and incubated for 4 h. The MTT solution was then drawn from the wells, and 100 μL of acidified ethanol solution was added to each well and after 15 min absorption at 560 nm was measured. […]

Row | SMILES | IC50 (KB-3-1 cells) | IC50 (KB-V1 cells) | RR (MDR1 selectivity) (KB-V1 cells)
1 | N/N=C1\C(=O)Nc2ccccc21 [Compound 2a, (Z)-3-Hydrazonoindolin-2-one] | > 500 µM | 125 ± 39.4 µM | 
2 | O=C1Nc2ccccc2/C1=N/N=C1\C(=O)Nc2ccccc21 [Compound 3, (3Z,3′Z)-3,3′-(Hydrazine-1,2-diylidene)diindolin-2-one] | 17.1 ± 0.83 µM | 17.3 ± 1.59 µM | 0.99
3 | O=C1Nc2ccccc2/C1=N/N=C1\C(=O)N(c2ccccc2)c2ccccc21 [Compound 4, (Z)-3-((Z)-(2-Oxoindolin-3-ylidene)hydrazono)-1-phenylindolin-2-one] | 8.7 ± 2.21 µM | 10.8 ± 1.1 µM | 0.81
4 | O=C1Nc2ccccc2/C1=N/N=C1\C(=O)Nc2ccc(F)cc21 [Compound 5, (Z)-5-Fluoro-3-((Z)-(2-oxoindolin-3-ylidene)hydrazono)indolin-2-one] | 28.1 ± 2.48 µM | 25.3 ± 10.1 µM | 1.11
5 | O=C1Nc2ccccc2/C1=N/N=C1\C(=O)Nc2ccc(Cl)cc21 [Compound 6, (Z)-5-Chloro-3-((Z)-(2-oxoindolin-3-ylidene)hydrazono)indolin-2-one] | 9.67 ± 1.74 µM | 7.72 ± 0.5 µM | 1.25
6 | O=C1Nc2ccccc2/C1=N/N=C1\C(=O)Nc2ccc(Br)cc21 [Compound 7, (Z)-5-Bromo-3-((Z)-(2-oxoindolin-3-ylidene)hydrazono)indolin-2-one] | 9.71 ± 0.31 µM | 7.58 ± 1.43 µM | 1.28
7 | Cc1ccc2c(c1)/C(=N/N=C1\C(=O)Nc3ccccc31)C(=O)N2 [Compound 8, (Z)-5-Methyl-3-((Z)-(2-oxoindolin-3-ylidene)hydrazono)indolin-2-one] | 12.1 ± 3.14 µM | 14.9 ± 1.26 µM | 0.81
8 | O=C1Nc2ccccc2/C1=N/N=C1\C(=O)Nc2ccc([N+](=O)[O-])cc21 [Compound 9, (Z)-5-Nitro-3-((Z)-(2-oxoindolin-3-ylidene)hydrazono)indolin-2-one] | 29.2 ± 2.81 µM | 30.4 ± 6.75 µM | 0.96
9 | O=C1Nc2ccccc2/C1=N/N=C1\C(=O)Nc2ccc(OC(F)(F)F)cc21 [Compound 10, (Z)-3-((Z)-(2-Oxoindolin-3-ylidene)hydrazono)-5-(trifluoromethoxy)indolin-2-one] | 9.75 ± 0.11 µM | 5.67 ± 1.18 µM | 1.72
10 | O=C1/C(=N\N=C2/C(=O)N(c3ccccc3)c3ccccc32)c2ccccc2N1c1ccccc1 [Compound 11, (3Z,3′Z)-3,3′-(Hydrazine-1,2-diylidene)bis(1-phenylindolin-2-one)] | 25.6 ± 2.39 µM | 22 ± 2.37 µM | 1.16
11 | O=C1Nc2ccc(F)cc2/C1=N/N=C1\C(=O)N(c2ccccc2)c2ccccc21 [Compound 12, (Z)-5-Fluoro-3-((Z)-(2-oxo-1-phenylindolin-3-ylidene)hydrazono)indolin-2-one] | 10.2 ± 1.52 µM | 11.2 ± 0.61 µM | 0.91
12 | O=C1Nc2ccc(Cl)cc2/C1=N/N=C1\C(=O)N(c2ccccc2)c2ccccc21 [Compound 13, (Z)-5-Chloro-3-((Z)-(2-oxo-1-phenylindolin-3-ylidene)hydrazono)indolin-2-one] | 6.79 ± 0.63 µM | 6.07 ± 1.19 µM | 1.12
13 | O=C1Nc2ccc(Br)cc2/C1=N/N=C1\C(=O)N(c2ccccc2)c2ccccc21 [Compound 14, (Z)-5-Bromo-3-((Z)-(2-oxo-1-phenylindolin-3-ylidene)hydrazono)indolin-2-one] | 7.93 ± 2.11 µM | 8.71 ± 0.27 µM | 0.91
14 | Cc1ccc2c(c1)/C(=N/N=C1\C(=O)N(c3ccccc3)c3ccccc31)C(=O)N2 [Compound 15, (Z)-5-Methyl-3-((Z)-(2-oxo-1-phenylindolin-3-ylidene)hydrazono)indolin-2-one] | 8.37 ± 0.62 µM | 8.06 ± 1.68 µM | 1.04
15 | O=C1Nc2ccc([N+](=O)[O-])cc2/C1=N/N=C1\C(=O)N(c2ccccc2)c2ccccc21 [Compound 16, (Z)-5-Nitro-3-((Z)-(2-oxo-1-phenylindolin-3-ylidene)hydrazono)indolin-2-one] | 37.1 ± 4.05 µM | 48.6 ± 2.32 µM | 0.76
16 | O=C1Nc2ccc(OC(F)(F)F)cc2/C1=N/N=C1\C(=O)N(c2ccccc2)c2ccccc21 [Compound 17, ((Z)-3-(Z)-(2-oxo-1-phenylindolin-3-ylidene)hydrazono)-5-(trifluoromethoxy)indolin-2-one] | 7.67 ± 0.88 µM | 4.8 ± 0.12 µM | 1.60
17 | O=C1Nc2ccc(F)cc2/C1=N/N=C1\C(=O)Nc2ccc(F)cc21 [Compound 18, (3Z,3′Z)-3,3′-(Hydrazine-1,2-diylidene)bis(5-fluoroindolin-2-one)] | 20.4 ± 4.62 µM | 16.5 ± 6.28 µM | 1.23
18 | O=C1Nc2ccc(F)cc2/C1=N/N=C1\C(=O)Nc2ccc(Cl)cc21 [Compound 19, (Z)-5-Chloro-3-((Z)-(5-fluoro-2-oxoindolin-3-ylidene)hydrazono)indolin-2-one] | 17.4 ± 4.41 µM | 11.3 ± 3.26 µM | 1.54
19 | O=C1Nc2ccc(F)cc2/C1=N/N=C1\C(=O)Nc2ccc(Br)cc21 [Compound 20, (Z)-5-Bromo-3-((Z)-(5-fluoro-2-oxoindolin-3-ylidene)hydrazono)indolin-2-one] | 15.4 ± 3.97 µM | 18.6 ± 2.01 µM | 0.83
20 | Cc1ccc2c(c1)/C(=N/N=C1\C(=O)Nc3ccc(F)cc31)C(=O)N2 [Compound 21, (Z)-5-Fluoro-3-((Z)-(5-methyl-2-oxoindolin-3-ylidene)hydrazono)indolin-2-one] | 18.9 ± 0.46 µM | 17.9 ± 0.82 µM | 1.06
21 | O=C1Nc2ccc(F)cc2/C1=N/N=C1\C(=O)Nc2ccc([N+](=O)[O-])cc21 [Compound 22, (Z)-5-Fluoro-3-((Z)-(5-nitro-2-oxoindolin-3-ylidene)hydrazono)indolin-2-one] | 56 ± 1.5 µM | 38.6 ± 13.5 µM | 1.45
22 | O=C1Nc2ccc(F)cc2/C1=N/N=C1\C(=O)Nc2ccc(OC(F)(F)F)cc21 [Compound 23, (Z)-5-Fluoro-3-((Z)-(2-oxo-5-(trifluoromethoxy)indolin-3-ylidene)hydrazono)indolin-2-one] | 15.2 ± 1.34 µM | 11.6 ± 2.55 µM | 1.31
